One data set has as its system Phakopsora pachyrhizi. In words: In vivo preventive test on Phakopsora (soybeans). More on the design: species or system Phakopsora pachyrhizi (soybean rust) on soybeans. To be noted: 168 h, young soybean plants sprayed, 10 ppm of active ingredient, evaluated 7 days after inoculation, 0% = untreated control, 100% = no disease, read-out: efficacy. Here is the method: Example: In Vivo Preventive Test on Phakopsora Test (Soybeans)
To produce a suitable preparation of active compound, 1 part by weight of active compound is mixed with the stated amounts of solvent and emulsifier, and the concentrate is diluted with water to the desired concentration.
To test for preventive activity, young plants are sprayed with the preparation of active compound at the stated rate of application. After the spray coating has dried on, the plants are inoculated with an aqueous spore suspension of the causal agent of soybean rust (Phakopsora pachyrhizi) and stay for 24 h without light in an incubation cabinet at approximately 24° C. and a relative atmospheric humidity of 95%.
The plants remain in the incubation cabinet at approximately 24° C. and a relative atmospheric humidity of approximately 80% and a day/night interval of 12 h.
The test is evaluated 7 days after the inoculation. 0% means an efficacy which corresponds to that of the untreated control, while an efficacy of 100% means that no disease is observed.

Data set [1] is described as follows: Log P measurement by HPLC on reversed phase columns (EEC directive 79/831 Annex V.A8). To be noted: reversed phase HPLC column, LC-UV. It counts as physicochemical. Here is the method:
[table] Measurement of Log P values was performed according to EEC directive 79/831 Annex V.A8 by HPLC (High Performance Liquid Chromatography) on reversed phase columns with the following methods: If more than one Log P value is available within the same method, all the values are given and separated by “+”. […] Lambda-max-values were determined using UV-spectra from 200 nm to 400 nm and the peak values of the chromatographic signals.

[2] abbreviates: acidic range, 0.1% formic acid in water and acetonitrile as eluent (linear gradient 10% to 95% acetonitrile), read-out: LogP [a].
Setting [3] is: neutral range, 0.001 molar ammonium acetate solution in water and acetonitrile as eluent (linear gradient 10% to 95% acetonitrile), read-out: LogP [b].

Like-named read-outs stand apart in the source and are kept apart here.

Five compounds from patent US20190308933A1, “PHENYLAMIDINES AND THE USE THEREOF AS FUNGICIDES” (priority 2016, published 2019) can be followed below.

Regarding `CCN(C)C=Nc1cc(C)c(Cc2ccc(F)cc2F)cc1Cl` [Example 21, N′-[2-chloro-4-[(2,4-difluorophenyl)methyl]-5-methylphenyl]-N-ethyl-N-methylmethanimidamide], the pest or weed control at 10 ppm with Phakopsora pachyrhizi was in the range of 90 to 100%. Besides, the values for the chromatographic logP in data set [1] (setting [2]) and in data set [1] (setting [3]) were 1.86 and 4.6, respectively.

For the compound `CCN(C)C=Nc1cc(Cl)c(Cc2ccc(F)cc2F)cc1C` [Example 22, N′-[5-chloro-4-[(2,4-difluorophenyl)methyl]-2-methylphenyl]-N-ethyl-N-methylmethanimidamide], in the data set with Phakopsora pachyrhizi, the pest or weed control at 10 ppm lay in the range of 90 to 100%. In addition, the chromatographic logP in data set [1] (setting [2]) was 1.63.

With `CCN(C)C=Nc1cc(Cl)c(Cc2ccccc2C)cc1C` [Example 23, N′-[5-chloro-2-methyl-4-[(2-methylphenyl)methyl]phenyl]-N-ethyl-N-methylmethanimidamide], the pest or weed control at 10 ppm with Phakopsora pachyrhizi is 90 to 100%. Moreover, the chromatographic logP is 1.66 in data set [1] (setting [2]) and 5.54 in data set [1] (setting [3]).

Consider `CCN(C)C=Nc1cc(Cl)c(Cc2cccc(F)c2F)cc1C` [Example 24, N′-[5-chloro-4-[(2,3-difluorophenyl)methyl]-2-methylphenyl]-N-ethyl-N-methylmethanimidamide], for which the pest or weed control at 10 ppm in the data set on Phakopsora pachyrhizi was 90 to 100%. Moreover, the chromatographic logP in data set [1] (setting [2]) was found to be 1.63; in data set [1] (setting [3]), 4.92.

Take `CCN(C)C=Nc1cc(Cl)c(Cc2ccccc2Cl)cc1C` [Example 30, N′-[5-chloro-4-[(2-chlorophenyl)methyl]-2-methylphenyl]-N-ethyl-N-methylmethanimidamide]: the pest or weed control at 10 ppm in the data set on Phakopsora pachyrhizi was in the range of 90 to 100%. The chromatographic logP in data set [1] (setting [2]) turned out to be 1.81; in data set [1] (setting [3]), 5.55.
